Experiments:
Format in all cases: in vivo
[1] = test system: canarygrass (littleseed canarygrass, Phalaris minor); assay: Test D postemergence controlled growth environment test
From the text: (§1) Seeds of plant species selected from blackgrass (Alopecurus myosuroides), galium (catchweed bedstraw, Galium aparine), kochia (Kochia scoparia), oilseed rape (Brassica napus), barley, spring (Hordeum vulgare), wheat, spring (Triticum aestivum), oat, wild (Avena fatua), barley, winter (Hordeum vulgare) and wheat, winter (Triticum aestivum) were planted into a silt loam soil and treated preemergence with test chemicals formulated in a non-phytotoxic solvent mixture which included a surfactant.
(§2) At the same time, plants selected from these crop and weed species and also bluegrass (annual bluegrass, Poa annua), canarygrass (littleseed canarygrass, Phalaris minor), chickweed (common chickweed, Stellaria media), bromegrass, downy (downy bromegrass, Bromus tectorum), field poppy (Papaver rhoeas), field violet (Viola arvensis), foxtail, green (Setaria viridis), deadnettle (henbit deadnettle, Lamium amplexicaule), ryegrass, Italian (Lolium multiflorum), lambsquarters (Chenopodium album), pigweed (Amaranthus retroflexus), chamomile (scentless chamomile, Matricaria inodora), Russian thistle (Salsola kali), speedwell (bird's-eye speedwell, Veronica persica), buckwheat, wild (Polygonum convolvulus), mustard, wild (Sinapis arvensis), radish, wild (Raphanus raphanistrum), windgrass (Apera spica-venti), geranium, cutleaf (Geranium dissectum) and Canada thistle (Cirsium arvense) were planted in pots containing Redi-Earth® planting medium (Scotts Company, 14111 Scottslawn Road, Marysville, Ohio 43041) comprising spaghnum peat moss, vermiculite, wetting agent and starter nutrients and treated with postemergence applications of the test chemicals formulated in the same manner. Plants ranged in height from 2 to 18 cm (1- to 4-leaf stage). Treated plants and controls were maintained in a controlled growth environment for 14 to 21 d after which time all species were compared to controls and visually evaluated. Plant response ratings, summarized in Table D, are based on a scale of 0 to 100 where 0 is no effect and 100 is complete control. A dash (-) response means no test result.

[2] = test system: chickweed (common chickweed, Stellaria media); assay: as above
From the text: as §1, §2

[3] = test system: ryegrass, Italian (Lolium multiflorum); assay: as above
From the text: as §1, §2

[4] = test system: windgrass (Apera spica-venti); assay: as above
From the text: as §1, §2

[5] = test system: radish, wild (Raphanus raphanistrum); assay: as above
From the text: as §1, §2

[6] = test system: deadnettle (henbit deadnettle, Lamium amplexicaule); assay: as above
From the text: as §1, §2

[7] = test system: mustard, wild (Sinapis arvensis); assay: as above
From the text: as §1, §2

[8] = test system: geranium, cutleaf (Geranium dissectum); assay: as above
From the text: as §1, §2

[9] = test system: speedwell (bird's-eye speedwell, Veronica persica); assay: as above
From the text: as §1, §2

[10] = test system: winter wheat (TRZAW; Triticum aetivum, cv. Arezzo); assay: Test of Tables L1 to L3, postemergence, mixtures of Cpd. No. 20 with benoxacor, isoxadifen-ethyl, or cloquintocet-mexyl; settings: for Plant response rating (0 to 100 scale) TRZAW: approx. 14 d
Outline: (§3)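 Postemergence spray of test chemical mixed with safener, in non-phytotoxic solvent with surfactant, onto potted plants 7–10 cm tall at one- to two-leaf stage. Kept in greenhouse ~14 d, then injury rated visually versus untreated controls on 0 (no effect)–100 (complete control) scale; mean of 4 reps.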

[11] = test system: soybean (GLXMA; Glycine max, cv. Pioneer 35T58); assay: as above; settings: for Plant response rating (0 to 100 scale) GLXMA: approx. 14 d
Outline: as §3

[12] = test system: giant foxtail (SETFA; Setaria faberi); assay: as above; settings: for Plant response rating (0 to 100 scale) SETFA: approx. 14 d
Outline: as §3

[13] = test system: Bulrush, Japanese (Scirpus juncoides); assay: Test C flooded paddy test; settings: Flood, scale 0 to 100
From the text: Plant species in the flooded paddy test consisted of rice (transplanted and water seeded, Oryza sativa), sedge, umbrella (small-flower umbrella sedge, Cyperus difformis), ducksalad (Heteranthera limosa), Bulrush, Japanese (Scirpus juncoides) and barnyardgrass (Echinochloa crus-galli) grown to the 2-leaf stage for testing. At time of treatment, test pots were flooded to 3 cm above the soil surface, treated by application of test compounds directly to the paddy water, and then maintained at that water depth for the duration of the test. Treated plants and controls were maintained in a greenhouse for 13 to 15 d, after which time all species were compared to controls and visually evaluated. Plant response ratings, summarized in Table C are based on a scale of 0 to 100 where 0 is no effect and 100 is complete control. A dash (-) response means no test result.

[14] = Cpd. No. 20 alone 125 g a.i./ha
[15] = Cpd. No. 20 alone 250 g a.i./ha
[16] = Cpd. No. 20 alone 375 g a.i./ha

## Cc1ccc2ccc(C)c(-c3c(O)c(Cl)nn(C)c3=O)c2c1 [Cpd. No. 20, 6-chloro-4-(2,7-dimethyl-1-naphthalenyl)-5-hydroxy-2-methyl-3(2H)-pyridazinone]
[1]; 16 g ai/ha
  Plant response rating, Canarygrass: 10
[1]; 31 g ai/ha
  Plant response rating, Canarygrass: 15
[1]; 62 g ai/ha
  Plant response rating, Canarygrass: 20
[1]; 125 g ai/ha
  Plant response rating, Canarygrass: 35
[2]; 16 g ai/ha
  Plant response rating, Chickweed: 99
[2]; 31 g ai/ha
  Plant response rating, Chickweed: 99
[2]; 62 g ai/ha
  Plant response rating, Chickweed: 100
[2]; 125 g ai/ha
  Plant response rating, Chickweed: 100
[3]; 16 g ai/ha
  Plant response rating, Ryegrass, Italian: 65
[3]; 31 g ai/ha
  Plant response rating, Ryegrass, Italian: 75
[3]; 62 g ai/ha
  Plant response rating, Ryegrass, Italian: 80
[3]; 125 g ai/ha
  Plant response rating, Ryegrass, Italian: 90
[4]; 16 g ai/ha
  Plant response rating, Windgrass: 15
[4]; 31 g ai/ha
  Plant response rating, Windgrass: 25
[4]; 62 g ai/ha
  Plant response rating, Windgrass: 50
[4]; 125 g ai/ha
  Plant response rating, Windgrass: 75
[5]; 16 g ai/ha
  Plant response rating, Radish, Wild: 0
[5]; 31 g ai/ha
  Plant response rating, Radish, Wild: 0
[5]; 62 g ai/ha
  Plant response rating, Radish, Wild: 15
[5]; 125 g ai/ha
  Plant response rating, Radish, Wild: 25
[6]; 16 g ai/ha
  Plant response rating, Deadnettle: 35
[6]; 31 g ai/ha
  Plant response rating, Deadnettle: 80
[6]; 62 g ai/ha
  Plant response rating, Deadnettle: 85
[6]; 125 g ai/ha
  Plant response rating, Deadnettle: 95
[7]; 16 g ai/ha
  Plant response rating, Mustard, Wild: 20
[7]; 31 g ai/ha
  Plant response rating, Mustard, Wild: 25
[7]; 62 g ai/ha
  Plant response rating, Mustard, Wild: 30
[7]; 125 g ai/ha
  Plant response rating, Mustard, Wild: 60
[8]; 16 g ai/ha
  Plant response rating, Geranium, Cutleaf: 65
[8]; 31 g ai/ha
  Plant response rating, Geranium, Cutleaf: 75
[8]; 62 g ai/ha
  Plant response rating, Geranium, Cutleaf: 80
[8]; 125 g ai/ha
  Plant response rating, Geranium, Cutleaf: 85
[9]; 16 g ai/ha
  Plant response rating, Speedwell: 50
[9]; 31 g ai/ha
  Plant response rating, Speedwell: 60
[9]; 62 g ai/ha
  Plant response rating, Speedwell: 80
[9]; 125 g ai/ha
  Plant response rating, Speedwell: 85
[10]; 125 g a.i./ha
  TRZAW plant response rating, 0 to 100 scale: 28
[10]; 250 g a.i./ha
  TRZAW plant response rating, 0 to 100 scale: 36
[10]; 375 g a.i./ha
  TRZAW plant response rating, 0 to 100 scale: 39
[10]; [14]
  Plant response rating (0 to 100 scale) TRZAW: 28
[10]; [15]
  Plant response rating (0 to 100 scale) TRZAW: 36
[10]; [16]
  Plant response rating (0 to 100 scale) TRZAW: 39
[11]; 125 g a.i./ha
  GLXMA plant response rating, 0 to 100 scale: 15
[11]; 250 g a.i./ha
  GLXMA plant response rating, 0 to 100 scale: 29
[11]; 375 g a.i./ha
  GLXMA plant response rating, 0 to 100 scale: 39
[11]; [14]
  Plant response rating (0 to 100 scale) GLXMA: 15
[11]; [15]
  Plant response rating (0 to 100 scale) GLXMA: 29
[11]; [16]
  Plant response rating (0 to 100 scale) GLXMA: 39
[12]; 125 g a.i./ha
  SETFA plant response rating, 0 to 100 scale: 84
[12]; 250 g a.i./ha
  SETFA plant response rating, 0 to 100 scale: 88
[12]; 375 g a.i./ha
  SETFA plant response rating, 0 to 100 scale: 90
[12]; [14]
  Plant response rating (0 to 100 scale) SETFA: 84
[12]; [15]
  Plant response rating (0 to 100 scale) SETFA: 88
[12]; [16]
  Plant response rating (0 to 100 scale) SETFA: 90

## Cc1cc(Cl)c2ccccc2c1-c1c(O)c(Cl)nn(C)c1=O [Cpd. No. 65]
[13]; 62 g ai/ha
  Plant response rating, Bulrush, Japanese: 75
[13]; 125 g ai/ha
  Plant response rating, Bulrush, Japanese: 90

From patent US12435044B2, “Pyridazinone herbicides and pyridazinone intermediates used to prepare a herbicide” (FMC Corporation, priority 2018, dated 2025)
